Literature values, collected in patent publication US20110091560A1, “COMPOSITIONS OF NANOPARTICLES AND METHODS OF MAKING THE SAME” (The Burnham Institute for Medical Research, priority 2009, published 2011).
Counter-ions that a name gives are not always drawn.

conditions: Log P, octanol and water

In order of rising “Partition Coefficient” value:
1. NCCC(O)(P(=O)(O)O)P(=O)(O)O [Pamidronate]  −7
2. CC(O)(P(=O)(O)O)P(=O)(O)O [Etidronate]  −6
3. O=P(O)(O)C(O)(Cc1cccnc1)P(=O)(O)O [Risedronate]  −5.8
4. O=P(O)(O)C(Cl)(Cl)P(=O)(O)O [Clodronate]  −5.6
5. CCCCCN(C)CCC(O)(P(=O)(O)O)P(=O)(O)O [Ibandronate sodium]  −4.4
6. Nc1ccn([C@@H]2O[C@H](CO)[C@@H](O)C2(F)F)c(=O)n1 [gemcitabine]  −1.4
7. Nc1nc(F)nc2c1ncn2[C@@H]1O[C@H](CO)[C@@H](O)[C@@H]1O [fludarabine]  −1.3
8. CN(Cc1cnc2nc(N)nc(N)c2n1)c1ccc(C(=O)N[C@@H](CCC(=O)O)C(=O)O)cc1 [methotrexate]  −0.7
9. O=c1[nH]cc(F)c(=O)[nH]1 [Example 5-FU, 5-FU]  −0.6
10. CC(C)C[C@H](NC(=O)[C@H](Cc1ccccc1)NC(=O)c1cnccn1)B(O)O [Bortezomib]  −0.4
11. COc1cc([C@@H]2c3cc4c(cc3[C@@H](O[C@@H]3O[C@@H]5CO[C@@H](C)O[C@H]5[C@H](O)[C@H]3O)[C@H]3COC(=O)[C@H]23)OCO4)cc(OC)c1O [etoposide]  0.06
12. O=P1(N(CCCl)CCCl)NCCCO1 (centres unmarked) [cyclosphosphamide]  0.3
13. C[C@]1(c2nc3c(C(N)=O)cccc3[nH]2)CCCN1 [Veliparib (ABT-888), Veliparib]  1
14. O=C(/C=C/c1cccc(S(=O)(=O)Nc2ccccc2)c1)NO [Belinostat]  1
15. O=C(CCCCCCC(=O)Nc1ccccc1)NO [Vorinostat (SAHA), Vorinostat]  1.4
16. O=C(/C=C/c1ccc(CN(CCO)CCc2c[nH]c3ccccc23)cc1)NO [Dacinostat]  2.1
17. O=P(O)(O)C(Sc1ccc(Cl)cc1)P(=O)(O)O [Tiludronate]  2.3
18. CCCC(CCC)C(=O)O [Valproic acid]  2.6
19. Cc1nc(N)nc(N)c1-c1ccc(Cl)c(Cl)c1 [Metoprine]  2.6
20. Nc1ccccc1NC(=O)c1ccc(CNc2nccc(-c3cccnc3)n2)cc1 [Mocetinostat]  2.7
21. Cc1[nH]c2ccccc2c1CCNCc1ccc(/C=C/C(=O)NO)cc1 [Panobinostat]  2.8
22. C[C@]12CCC(=O)C(O)=C1CC[C@@H]1[C@@H]2CC[C@]2(C)C(=O)CC[C@@H]12 [Formestane]  3.1
23. N#Cc1ccc(C(c2ccc(C#N)cc2)n2cncn2)cc1 [Letrozole]  3.1
24. NC(=O)N1CCC(CC(=O)N2CCC([C@H]3c4ncc(Br)cc4CCc4cc(Cl)cc(Br)c43)CC2)CC1 [Lonafarnib]  3.1
25. Nc1ccccc1NC(=O)c1ccc(CNC(=O)OCc2cccnc2)cc1 [Entinostat]  3.1
26. C=CCNC1=C2C[C@@H](C)C[C@H](OC)[C@H](O)[C@@H](C)/C=C(\C)[C@H](OC(N)=O)[C@@H](OC)/C=C\C=C(/C)C(=O)NC(=CC1=O)C2=O [Example 17-AAG, 17-AAG]  3.4
27. CC(C)(C#N)c1cc(Cn2cncn2)cc(C(C)(C)C#N)c1 [Anastrozole]  3.5
28. CC(=O)O[C@H]1C(=O)[C@@]2(C)[C@H]([C@H](OC(=O)c3ccccc3)[C@]3(O)C[C@H](OC(=O)[C@H](O)[C@@H](NC(=O)c4ccccc4)c4ccccc4)C(C)=C1C3(C)C)[C@]1(OC(C)=O)CO[C@@H]1C[C@@H]2O [Paclitaxel]  3.6
29. C=C1C[C@@H]2[C@H](CC[C@]3(C)C(=O)CC[C@@H]23)[C@@]2(C)C=CC(=O)C=C12 [Exemestane]  3.8
30. C#Cc1cccc(Nc2ncnc3cc(OCCOC)c(OCCOC)cc23)c1 [Erlotinib HCl]  3.9
31. Cc1nc(Nc2ncc(C(=O)Nc3c(C)cccc3Cl)s2)cc(N2CCN(CCO)CC2)n1 [Dasatinib]  3.9
32. COc1cc2ncnc(Nc3ccc(F)c(Cl)c3)c2cc1OCCCN1CCOCC1 [Gefitinib]  4.5
33. CC1=C(CO)C2=C(C)C3(CC3)[C@@](C)(O)C(=O)C2=C1 [Irofulven]  4.7
34. CS(=O)(=O)CCNCc1ccc(-c2ccc3ncnc(Nc4ccc(OCc5cccc(F)c5)c(Cl)c4)c3c2)o1 [Lapatinib]  5.1
35. CN(C)CCOc1ccc(/C(=C(/CCCl)c2ccccc2)c2ccccc2)cc1 [Toremifene]  5.7
36. O=C(c1ccc(OCCN2CCCCC2)cc1)c1c(-c2ccc(O)cc2)sc2cc(O)ccc12 [Raloxifene]  6.3
37. CO[C@H]1C[C@@H]2CC[C@@H](C)[C@@](O)(O2)C(=O)C(=O)N2CCCC[C@H]2C(=O)O[C@H]([C@H](C)C[C@@H]2CC[C@@H](OCCO)[C@H](OC)C2)CC(=O)[C@H](C)/C=C(\C)[C@@H](O)[C@@H](OC)C(=O)[C@H](C)C[C@H](C)/C=C/C=C/C=C/1C [Everolimus]  6.8
38. CO[C@H]1C[C@@H]2CC[C@@H](C)[C@@](O)(O2)C(=O)C(=O)N2CCCC[C@H]2C(=O)O[C@H]([C@H](C)C[C@@H]2CC[C@@H](OC(=O)C(C)(CO)CO)[C@H](OC)C2)CC(=O)[C@H](C)/C=C(\C)[C@@H](O)[C@@H](OC)C(=O)[C@H](C)C[C@H](C)/C=C/C=C/C=C/1C [Temsirolimus]  6.8
39. CO[C@H]1C[C@@H]2CC[C@@H](C)[C@@](O)(O2)C(=O)C(=O)N2CCCC[C@H]2C(=O)O[C@H]([C@H](C)C[C@@H]2CC[C@@H](O)[C@H](OC)C2)CC(=O)[C@H](C)/C=C(\C)[C@@H](O)[C@@H](OC)C(=O)[C@H](C)C[C@H](C)/C=C/C=C/C=C/1C [Rapamycin]  6.9
40. C[C@]12CC[C@@H]3c4ccc(O)cc4C[C@@H](CCCCCCCCC[S+]([O-])CCCC(F)(F)C(F)(F)F)[C@H]3[C@@H]1CC[C@@H]2O (some centres unmarked) [Fulvestrant (SERD), Fulvestrant]  8.5

same assay, conditions: Log P, octanol and water; listed as paclitaxel

In the case of `CC(=O)O[C@H]1C(=O)[C@@]2(C)[C@H]([C@H](OC(=O)c3ccccc3)[C@]3(O)C[C@H](OC(=O)[C@H](O)[C@@H](NC(=O)c4ccccc4)c4ccccc4)C(C)=C1C3(C)C)[C@]1(OC(C)=O)CO[C@@H]1C[C@@H]2O` [Paclitaxel], the “Partition Coefficient” value is given as “about 3.6”.
